The text below walks through data of patent publication US7169932B2 (priority 2001, dated 2007).

A value given as a limit tells only on which side of the number the result lay.

The subject of one data set is 46I, 84V, 90M virus. Description: Phenotypic susceptibility assay at Virologic, Inc. Format: cell-based, HIV-1. Conditions: Human immunodeficiency virus 1. On the procedure: Compounds were tested in phenotypic susceptibility assays at Virologic, Inc., (See Petropoulos C. J., Parkin N. T., Limoli K. L., Lie Y. S., Wrin T., Huang W., Tian H., Smith D., Winslow G. A., Capon D J, Whitcomb J M. 2000, “A novel phenotypic drug susceptibility assay for human immunodeficiency virus type 1,” Antimicrob Agents Chemother 44(4):920–928) or using the assay described here. MT-2 cells were infected with either HIV-1 NL4–3 or HIV-1 NL4–3(184V/L90M) and incubated in the presence of serial 0.5 log dilutions of test compounds. Three days later, culture supernatants were collected and virus production, as determined by p24 ELISA, was assayed. Percent inhibition was calculated as p24 concentration in compound-treated samples as compared to infected, compound-free controls. Inhibition of viral replication is determined by measuring reduction in HIV p24 present in the culture supernatant, using a Beckman-Coulter p24 HIV-1 Ag EIA kit and following the supplied protocol. Absorbance is read on a MRX microplate reader (Dynex Technologies). The EC50 was calculated as the concentration of compound that effected a decrease in the p24 production by infected, compound-treated cells to 50% of that produced by infected, compound-free cells.

The target of another data set is T1, HIV-1 protease (Q7S) (Human immunodeficiency virus type 1 group M subtype B, UniProt P04585, Q495S).
T1 construct: made in house
Briefly: HIV-1 Protease RET Assay. The format is biochemical. Conditions: Ave. Ki (nM), RET assay, Q7S enzyme, pH 4.8, 37 C. An outline of the steps:
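Ki values came from a RET assay on refolded Q7S protease (2 nM active dimer) cleaving RE(EDANS)SQNYPIVQK(DABCYL)R at 5 μM, read at ex 340/em 490 nm. Reactions ran 12 min at 37 C in 0.1M sodium acetate pH 4.8, 1M NaCl, 5 mM DTT, 10% DMSO; curves were fit with the Morrison tight-binding equation.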

The subject of a further data set is HIV-1. Briefly: Cytopathic Effect (CPE) Inhibition Assay (XTT dye reduction). Conditions: Human immunodeficiency virus 1, 144 h, read-out: Ave CPE EC50 (mM), protection of infected cells, six days, XTT. Format: cell-based. An outline of the steps: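 CEM-SS or MT-2 cells infected with HIV-1 RF or NL4–3 (moi 0.025–0.819), 2×10^4 cells/well, incubated six days with half-log compound dilutions. Viability read by XTT formazan at 450 nm; EC50 is the concentration restoring 50% of uninfected-control formazan, CC50 from uninfected treated cells, therapeutic index CC50/EC50.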
For orientation: Cytopathic effects are the visible damage that an infection or toxin causes in cultured cells.

As a reminder, the IC50 is the point on the concentration scale where inhibition reaches its midpoint. Lower therefore signals higher potency. By Ki is commonly meant a dissociation constant, usually derived from enzyme kinetics or from competition with a known ligand. Read a high Ki as lower affinity. By EC50 is commonly meant the concentration at which the effect is half-maximal. As to `C#CCNC(=O)[C@H]1N(C(=O)[C@@H](O)[C@H](Cc2ccccc2)NC(=O)c2cccc(O)c2C)CSC1(C)C` [Example A17, 3-(2-Hydroxy-3-{[1-(3-hydroxy-2-methyl-phenyl)-methanoyl]-amino}-4-phenyl-butanoyl)-5,5-dimethyl-thiazolidine-4-carboxylic acid prop-2-ynylamide], in the data set on 46I, 84V, 90M virus, it took 0.102 µM to reach half-maximal inhibition (IC50). The compound also showed a Ki at HIV-1 protease (Q7S) of less than 0.1 nM. In addition, the EC50 in the data set with HIV-1 came out at 0.045 µM.
In the data set with 46I, 84V, 90M virus, `Cc1c(O)cccc1C(=O)N[C@@H](Cc1ccccc1)[C@H](O)C(=O)N1CSC(C)(C)[C@H]1C(=O)NCC#N` [Example A30, (R)-3-((2S,3S)-2-Hydroxy-3-{[1-(3-hydroxy-2-methyl-phenyl)-methanoyl]-amino}-4-phenyl-butanoyl)-5,5-dimethyl-thiazolidine-4-carboxylic acid cyanomethylamide] came in with an IC50 of 0.829 µM. In addition, on HIV-1 protease (Q7S), affinity was put at a Ki of 1.1 nM. Moreover, the EC50 in the data set on HIV-1 worked out at 0.507 µM.
The melting point is the temperature of the solid-liquid transition. For the compound `Cc1c(O)cccc1C(=O)N[C@@H](Cc1ccccc1)[C@H](O)C(=O)N1CSC(C)(C)[C@H]1C(=O)N[C@@H](C)c1ccccc1` [Example A20, (R)-3-((2S,3S)-2-Hydroxy-3-{[1-(3-hydroxy-2-methyl-phenyl)-methanoyl]-amino}-4-phenyl-butanoyl)-5,5-dimethyl-thiazolidine-4-carboxylic acid ((S)-1-phenyl-ethyl)-amide], the melting point fell in the range of 114 to 115 °C. Besides, the midpoint of inhibition in the data set on 46I, 84V, 90M virus, the IC50, lay at 0.147 µM. Moreover, on HIV-1 protease (Q7S), affinity was put at a Ki of 0.13 nM. Moreover, in the data set on HIV-1, the EC50 came to 0.037 µM.
Taken in the same sequence, the figures for `CCOc1cccc(CNC(=O)[C@H]2N(C(=O)[C@@H](O)[C@H](Cc3ccccc3)NC(=O)c3cccc(O)c3C)CSC2(C)C)c1` [Example A26, (R)-3-((2S,3S)-2-Hydroxy-3-{[1-(3-hydroxy-2-methyl-phenyl)-methanoyl]-amino}-4-phenyl-butanoyl)-5,5-dimethyl-thiazolidine-4-carboxylic acid 3-ethoxy-benzylamide] were 105 to 107 °C, 0.321 µM, 0.38 nM and 0.119 µM.
With `Cc1nc(C)c(C(=O)N[C@@H](Cc2ccccc2)[C@H](O)C(=O)N2CSC(C)(C)[C@H]2C(=O)NCc2ccccc2C)s1` [Example B11, 2,4-Dimethyl-thiazole-5-carboxylic acid {1-benzyl-3-[5,5-dimethyl-4-(2-methyl-benzylcarbamoyl)-thiazolidin-3-yl]-2-hydroxy-3-oxo-propyl}-amide], the midpoint of inhibition in the data set on 46I, 84V, 90M virus, the IC50, lay at 1.72 µM. Also, the Ki at HIV-1 protease (Q7S) was found to be 1.2 nM. Moreover, in the data set on HIV-1, the EC50 is 1.18 µM.
